Data published in paper PMC10039358, “The 8-bromobaicalein inhibited the replication of dengue, and Zika viruses and targeted the dengue polymerase” (Scientific Reports, 2023).

Key:
[1] = Cytotoxicity (CC50), MTS assay
Source text: (§1) LLC/MK2 (ATCC® CCL-7), HEK-293 (ATCC® CRL-1573), HepG2 (ATCC® HB-8065), THP-1 (ATCC® TIB-202), Huh-7, RD (ATCC® CCL-136™), and C6/36 (ATCC® CRL-1660) cell lines were propagated and maintained as previously described[16],[21],[40],[53]. Reference DENV1 (16007), DENV2 (NGC, 16681), DENV3 (16562), DENV4 (1036), ZIKV (SV0127/14), and EV-A71 (BRCR) were propagated in Vero, C6/36, and R.D. cells as described[16],[21] Phumee et al.[53]. Cytotoxic concentration (CC50) of LLC/MK2, THP-1, HEK-293, HepG2, Huh-7, and R.D. cells were analyzed as previously described. […] Briefly, cells were seeded overnight and infected with each virus at the multiplicity of infection (M.O.I.) of 0.1 for 1 h. The compound was added during and after infection, and cells were incubated for 72 h. Supernatants were collected for 96-well[55] or a traditional 24-well plaque titration.
(§2) Supplementary Fig. S2. […] Briefly, cells were seeded overnight before the compound addition.

[2] = Cytotoxicity (CC50), MTS assay; settings: human
Source text: as §1, §2

[3] = Cytotoxicity (CC50), MTS assay; settings: human; remark: listed apart in the source
Source text: as §1, §2

[4] = Cytotoxicity (CC50), MTS assay; settings: human; remark: listed apart in the source
Source text: as §1, §2

[5] = Cytotoxicity (CC50), MTS assay; settings: human; remark: listed apart in the source
Source text: as §1, §2

[6] = tested on: DENV1 (16008); assay: Antiviral efficacy (EC50), plaque titration; type: cell-based; settings: for EC50: LLC-MK2, 72 h
Source text: as §1

[7] = tested on: DENV2 (NGC); assay: Antiviral efficacy (EC50), plaque titration; type: cell-based; settings: for EC50: Dengue virus, DENV2, LLC-MK2, 72 h
Source text: as §1

[8] = tested on: DENV3 (16562); assay: Antiviral efficacy (EC50), plaque titration; type: cell-based; settings: for EC50: LLC-MK2, 72 h
Source text: as §1

[9] = tested on: DENV4 (1036); assay: Antiviral efficacy (EC50), plaque titration; type: cell-based; settings: for EC50: LLC-MK2, 72 h
Source text: as §1

[10] = tested on: EV-A71 (BRCR); assay: Antiviral efficacy (EC50), plaque titration; type: cell-based
Source text: as §1

[11] = tested on: ZIKV (SV0127/14); assay: Antiviral efficacy (EC50), plaque titration; type: cell-based; settings: for EC50: Zika virus, ZIKV (SV0127/14), LLC/MK2 cells, M.O.I. 0.1, 72 h
Source text: as §1

[12] = tested on: DENV1-4, and ZIKV; assay: Antiviral efficacy, summary over dengue serotypes and Zika; type: cell-based
[13] = molecular target: T1, DENV2 NS5/RdRp (Dengue virus type 2, UniProt P29990); assay: In vitro RdRp assay (SYTO-9 fluorescence); type: biochemical, DENV-2
T1 construct: The 73.2 kDa of non-tagged NS5/RdRp was successfully purified by size exclusion chromatography; His-tag (N, cleaved yes); made in house
Method: The production of DENV2 RdRp was performed according to a described protocol. In brief, N-terminally Histidine-tagged DENV2 RdRp (NHis-RdRp) was expressed with 200 µM IPTG (isopropyl-b-D-thiogalactopyranoside) induction, at 37 °C for 4 h. Cell disruption and clarification were sequentially done via sonication and centrifugation at 15,000 rpm for 1 h at 4 °C. His-tagged RdRp was purified by immobilized metal affinity chromatography (IMAC) with 175 mM imidazole elution. His-tag was removed by adding 2 units thrombin per 1 mg protein during dialysis for 2 days at 4 °C. The non-tagged RdRp was further purified by size exclusion chromatography. […]
The RdRp assay for inhibition testing was adapted from the previous publications[46],[71]. […] The nascent double-stranded RNA was quantitated by mixing 10 µl of the reaction mixture with 10 µl of 5 µM SYTO-9 dye in Tris–EDTA buffer and incubating at room temperature for 5 min. Fluorescence was measured at excitation and emission wavelengths of 485 nm and 520 nm, respectively, by using EnSight Multimode Plate Reader (Perkin Elmer, Waltham, MA, USA). The IC50 value was calculated from three independent experiments by using PRISM version 9 (GraphPad Software, Inc., La Jolla, CA, USA).

[14] = molecular target: T2, DENV-2 MTase (Dengue virus type 2, UniProt P14340); assay: MTase-Glo methyltransferase assay; type: biochemical; settings: 100 µM compound
T2 construct: N-terminally Histidine-tagged DENV-2 MTase (NHis-MTase) synthesized according to previous description; His-tag (N)
T2 sequence (P14340 2493-2755): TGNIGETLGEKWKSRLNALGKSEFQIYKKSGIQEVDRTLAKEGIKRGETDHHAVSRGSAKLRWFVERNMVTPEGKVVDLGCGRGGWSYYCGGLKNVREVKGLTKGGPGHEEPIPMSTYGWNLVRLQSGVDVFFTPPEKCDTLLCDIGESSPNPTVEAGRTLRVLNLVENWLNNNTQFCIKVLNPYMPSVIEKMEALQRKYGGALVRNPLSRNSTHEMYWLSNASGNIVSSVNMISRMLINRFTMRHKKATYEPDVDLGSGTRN
Method: The production of DENV2 MTase was performed according to a described protocol. In brief, N-terminally Histidine-tagged DENV-2 MTase (NHis-MTase) synthesized according to previous description[30] (GenScript; Piscataway, NJ, USA) was expressed with 100 µM IPTG (isopropyl-b-D-thiogalactopyranoside) induction, at 27 °C for 16 h. Cell disruption and clarification were sequentially done via sonication and centrifugation at 12,000 rpm for 30 min at 4 °C. His-tagged […] was purified by immobilized metal affinity chromatography (IMAC; Cytiva, Marlborough, MA, USA) with 500 mM imidazole elution. The eluate was dialyzed against 2 L of 50 mM Tris, pH 7.5, 50 mM NaCl, 1 mM MgCl2, 40% glycerol, and 1 mM DTT at 4 °C overnight. The purified enzyme was verified by Coomassie staining and methyltransferase activity.
The MTase assay for inhibition testing was adapted from the previous publications. The MTase assay for inhibition testing was performed using MTase-Glo™ Methyltransferase Assay according to the manufacturer’s protocol (Promega, Madison, Wisconsin, USA). Each reaction was performed in 50 µl reaction using the MTase from DENV-2. […] The luminescence was measured using VICTORTM X3 2030 Multilabel Reader (Perkin Elmer, Waltham, MA, USA). The percent enzyme activity was calculated from two independent experiments by using PRISM version 9 (GraphPad Software, La Jolla, CA, USA).

[15] = tested on: DENV2 NGC; assay: Cell-based time-of-addition study, plaque assay; settings: 2, 5 or 10 µM, added within 12 h after infection, LLC/MK2, harvested 72 h
Method: Figure 5 A scheme and DENV2 titers (pfu/ml) in LLC/MK2 cells of time-of-drug addition study. Briefly, the 2, 5, and 10 µM 8-bromobaicalein was added into DENV2-infected cells (M.O.I. of 0.1) at various time points. All supermatants were harvested at 72 h and quantified by plaque assay. Errors indicated the standard deviation of three biological replicates.
(§3) The protocol was adapted from a previous description. Briefly, LLC/MK2 cells (5 × 10^4) were seeded in a 24-well plate and incubated as described. Cells were infected with DENV2 NGC, unless otherwise indicated, at the M.O.I. of 0.1 before adding the compound at designated concentrations. DMSO at 1% was used as no inhibition control. Supernatants were collected to determined viral titers by plaque titration assay or RT-qPCR.

[16] = tested on: DENV3; assay: Time-of-addition, viral RNA by RT-qPCR; type: cell-based; settings: 10 µM added 1, 6, and 12 h after infection, LLC/MK2, M.O.I. 1
Method: as §3
(§4) Supplementary Fig. S8. The time-of-addition of 8-bromobaicalein against DENV3-, and ZIKV-infected LLC/MK2 cells. Briefly, the 10 µM 8-bromobaicalein was added to the virus-infected cells (M.O.I. of 1) at 1, 6, 12, 24, and 48 h post-infection. Supernatants were collected at 48 h after infection for analysis by RT-qPCR. Results were reported as percent inhibition from DMSO-treated cells.

[17] = tested on: ZIKV; assay: Time-of-addition, viral RNA by RT-qPCR; type: cell-based; settings: 10 µM added 1, 6, and 12 h after infection, LLC/MK2, M.O.I. 1
Method: as §3, §4

[18] = tested on: C57BL/6 mice; assay: Animal toxicity, 7 days intraperitoneal
Method: (A) ALT and (B) Cr levels in infant mice and (C) ALT and (D) Cr levels in adult mice taken at the 8th day after seven consecutive days of 10 mg/kg 8-bromobaicalein, once daily, intraperitoneal administration. Plasma samples were collected for analysis of hepatorenal functions. Each data point represented the ALT or Cr levels of each individual. Error bars indicated the standard deviation of the means.
All methods were carried out in accordance with relevant guidelines and regulations. All experimental protocols were approved by the Institutional Animal Care and Use Committee of the Faculty of Medicine, Chulalongkorn University, Bangkok, Thailand (certificate number: 027/2562), based on the National Institutes of Health, U.S.A.'s criteria for the use and treatment of laboratory animals and by the National University of Singapore (protocol number: R20-0073). All methods are reported in accordance with ARRIVE guidelines (https://arriveguidelines.org) for the reporting of animal experiments. The 8-bromobaicalein was daily administered at 10 mg/kg via intraperitoneal injection for 7 days (n = 6) to determine the drug safety. The control group (n = 6) was injected with the vehicle (5% DMSO, 33.25% polyethylene glycol (PEG.)-400, 1.90% ethanol, and 59.85% distilled water). All mice were weighed daily and monitored for clinical signs using a clinical scoring system. Blood samples were collected via submandibular and cardiac puncture at the 8th day after the first compound administration for alanine transaminase (EnzyChrom, EALT-100, BioAssay, Hayward, CA, USA), and serum creatinine (QuantiChromTM, DICT-500, BioAssay, Hayward, CA, USA) as markers of hepatotoxicity and nephrotoxicity, respectively.

[19] = tested on: chikungunya virus (CHIKV); assay: Antiviral efficacy (EC50) against chikungunya virus; type: cell-based; settings: LLC-MK2
[20] = tested on: various cell lines; assay: Cytotoxicities in various cell lines, summary; type: cell-based; settings: 100 µM, most cells
Method: as §2

[21] = tested on: dengue, Zika, and Japanese encephalitis viruses; settings: depending the assay and detection systems ref 32, 47, 48; cited from earlier work
[22] = tested on: Vero; settings: cited from earlier work
[23] = tested on: A549; settings: cited from earlier work
[24] = tested on: HaCat cells; settings: cited from earlier work
[25] = 8th day after first injection, 10 mg/kg i.p., infant and adult

With `O=c1cc(-c2ccccc2)oc2c(Br)c(O)c(O)c(O)c12` [8-bromobaicalein] the CC50 at 48 h ([1]; human) was over 100000 nM, the CC50 at 48 h ([1]; rhesus monkey) was over 250000 nM and the CC50 at 48 h [2] was over 100000 nM. The CC50 at 48 h [3] was over 100000 nM, the CC50 at 48 h [4] was 97900 ± 7060 nM and the CC50 at 48 h [5] was over 100000 nM. The “Selectivity index (SI)” value ([6]; DENV1, CC50/EC50 in LLC/MK2) was over 378.7879, the EC50 [6] was 660 ± 50 nM and the “Selectivity index (SI)” value ([7]; DENV2, CC50/EC50 in LLC/MK2) was over 284.0909. The EC50 [7] was 880 ± 140 nM, the “Selectivity index (SI)” value ([8]; DENV3, CC50/EC50 in LLC/MK2) was over 312.5 and the EC50 [8] was 800 ± 80 nM. For the same compound, the “Selectivity index (SI)” value ([9]; DENV4, CC50/EC50 in LLC/MK2) was over 312.5, the EC50 [9] was 800 ± 150 nM and the EC50 ([10]; Enterovirus A, EVA71, EV-A71 (BRCR), table title LLC/MK2 cells, methods R.D. cells) was over 25000 nM. For the same compound, the “Inhibition of enterovirus-A71” value ([10]; nonenveloped enterovirus-A71) was “did not inhibit”, the “Selectivity index (SI)” value ([11]; ZIKV, CC50/EC50 in LLC/MK2) was over 347.2222 and the EC50 [11] was 720 ± 200 nM. The “Selectivity index (SI) in dengue and Zika viruses” value ([12]; LLC/MK2) was “about 300”, the EC50 ([12]; Zika virus, DENV1, read-out: EC50s against DENV1-4 and ZIKV) was 660 to 880 nM and the IC50 [13] was 34900 nM. The inhibition at 100 µM [14] was under 50%, the “Inhibition of virion progeny” value [15] was 1–2.5 log concentrations (pfu/mL) and the “Inhibition of DENV3 RNA” value [16] was “inhibited”. The “Inhibition of ZIKV RNA” value [17] was “inhibited”, the Clinical scorings ([18]; 10 mg/kg i.p. once daily, 7 days) was “within normal range” and the “General health of mice” value ([18]; 10 mg/kg i.p. once daily, 7 days, infant and adult mice) was “healthy throughout the experiments”. The “Alanine transaminase (ALT) level, treated vs control” value [18, 25] was “insignificantly different”, the “Plasma creatinine (Cr) level, treated vs control” value [18, 25] was “insignificantly different” and the “ALT in adult cohort” value ([18]; adult mice, 10 mg/kg i.p., 7 days) was “slight ALT increase”. The EC50 [19] was 490 ± 110 nM and the Cytotoxicity to cells [20] was “not toxic”.

`O=c1cc(-c2ccccc2)oc2cc(O)c(O)c(O)c12` [baicalein, 5,6,7-trihydroxyflavone] showed a CC50 at 48 h ([1]; rhesus monkey) of over 250000 nM, an EC50 [6] of 1400 ± 380 nM and an EC50 [7] of 4040 ± 1370 nM. For the same compound, the EC50 [8] was 1190 ± 660 nM, the EC50 [9] was 930 ± 130 nM and the EC50 [11] was 1580 ± 420 nM. The IC50 [13] was 242000 nM, the EC50 [21] was 4 to 24000 nM and the CC50 [22] was over 100000 nM. For the same compound, the CC50 [23] was over 50000 nM and the CC50 [24] was over 200000 nM.
